Legend:
[1] = molecular target: T1, USPSa-WT (Staphylococcus aureus, UniProt A0A7U7EVR3); experiment: biochemical; format: binding; conditions: His6-USPSa WT, MST; for Kd: Dissociation Constant (KD) ± Standard Deviation
Procedure: For labeling, the proteins were diluted to a concentration of 800 nM in binding buffer (50 mM potassium phosphate, pH 8.0, 800 mM NaCl, and 0.05% Tween 20), mixed with an equal volume of RED-Tris-NTA dye (80 nM), and incubated on ice in the dark for 30 min. […] The labeled proteins and the ligand dilutions were then mixed in a 1:1 ratio and incubated on ice in the dark for 30 min.
The samples were then loaded into Monolith standard-treated capillaries in triplicate, and the changes in fluorescence were measured with 40% LED power and 20% IR-laser power for an on-time of 20-s at 23 °C. To determine the binding affinity, the ligand-dependent changes in the intensity of the initial fluorescence, or the thermophoretic mobility, were analyzed according to the law of mass action in a standard fitting mode of MO.Affinity analysis software (version 2.3). To exclude the possibility of nonspecific binding of the ligand to the His6-tag (on USPSa) or ligand-induced USP adsorption to labware or due to aggregation, we performed His6-peptide and EDTA tests, respectively ([91]). […] In the EDTA test, the binding buffer additionally contained 50 mM EDTA to disrupt the interaction between His6-USP and the RED-Tris-NTA dye.

[2] = test system: USPSa-S244A; experiment: MicroScale Thermophoresis (initial fluorescence change) nucleotide binding; design: species or system Staphylococcus aureus; conditions: S244A mutant
Procedure: (§1) The ligand-binding specificity of USPSa, the role of USPSa residues in c-di-AMP binding, and the c-di-AMP binding affinity of USP homologs were biochemically determined by MST, using purified WT and mutant proteins. […] For these MST experiments, WT and active-site mutants of His6-USPSa were first fluorescently labeled using a RED-Tris NTA Monolith His-Tag labeling kit (Nanotemper, Technologies, Inc). For labeling, the proteins were diluted to a concentration of 800 nM in binding buffer (50 mM potassium phosphate, pH 8.0, 800 mM NaCl, and 0.05% Tween 20), mixed with an equal volume of RED-Tris-NTA dye (80 nM), and incubated on ice in the dark for 30 min. The stock solutions of ligands (c-di-AMP, c-di-GMP, ATP, AMP, c-AMP) were serially diluted with the binding buffer in a 1:1 ratio during each dilution step. The labeled proteins and the ligand dilutions were then mixed in a 1:1 ratio and incubated on ice in the dark for 30 min.
(§2) The samples were then loaded into Monolith standard-treated capillaries in triplicate, and the changes in fluorescence were measured with 40% LED power and 20% IR-laser power for an on-time of 20-s at 23 °C. To determine the binding affinity, the ligand-dependent changes in the intensity of the initial fluorescence, or the thermophoretic mobility, were analyzed according to the law of mass action in a standard fitting mode of MO.Affinity analysis software (version 2.3). To exclude the possibility of nonspecific binding of the ligand to the His6-tag (on USPSa) or ligand-induced USP adsorption to labware or due to aggregation, we performed His6-peptide and EDTA tests, respectively ([91]). In the His6-peptide test, a control His6-peptide was used instead of USP in the binding assay described above, and if no change in initial fluorescence occurred, this confirmed the USP-specific binding of ligands. In the EDTA test, the binding buffer additionally contained 50 mM EDTA to disrupt the interaction between His6-USP and the RED-Tris-NTA dye. The complete loss of the ligand-induced initial fluorescence change in this assay confirmed that this change was neither because of protein aggregation nor because of protein adsorption to labware.
(§3) The Ka values of WT USPSa for c-di-AMP or AMP were set to 100% relative affinity, and the binding affinities of the other nucleotides (Fig. 1C), or USPSa mutants (Fig. 4E), or USP homologs (Fig. 6, B and C) were depicted as percent values compared with the values of the WT USPSa.

[3] = molecular target: T2, USPSa-A242G (Staphylococcus aureus, UniProt A0A7U7EVR3, A242G); experiment: as above; conditions: A242G mutant
T2 sequence (A0A7U7EVR3 213-364 A242G): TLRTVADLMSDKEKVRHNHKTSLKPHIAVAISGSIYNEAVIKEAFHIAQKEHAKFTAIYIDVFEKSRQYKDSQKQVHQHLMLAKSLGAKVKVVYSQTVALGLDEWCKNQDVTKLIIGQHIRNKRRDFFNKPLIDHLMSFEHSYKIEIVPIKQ
Procedure: as §1, §2, §3

[4] = molecular target: T3, USPSa-H331A (Staphylococcus aureus, UniProt A0A7U7EVR3, H331A); experiment: as above
T3 sequence (A0A7U7EVR3 213-364 H331A): T2 sequence (A0A7U7EVR3 213-364 A242G)
Procedure: as §1, §2, §3

[5] = molecular target: USPSa-K282A (Staphylococcus aureus, UniProt A0A7U7EVR3, K282A); experiment: as above; conditions: K282A mutant, MST, read-out: Dissociation Constant (KD) ± Standard Deviation
Procedure: as §1, §2, §3

[6] = molecular target: T4, USPSa-L344A (Staphylococcus aureus, UniProt A0A7U7EVR3, L344A); experiment: as above; conditions: L344A mutant
T4 sequence (A0A7U7EVR3 213-364 L344A): T2 sequence (A0A7U7EVR3 213-364 A242G)
Procedure: as §1, §2, §3

[7] = molecular target: T5, USPSa-N249A (Staphylococcus aureus, UniProt A0A7U7EVR3, N249A); experiment: as above; conditions: N249A mutant; MST, initial fluorescence; read-out: Dissociation Constant (KD) ± Standard Deviation
T5 sequence (A0A7U7EVR3 213-364 N249A): T2 sequence (A0A7U7EVR3 213-364 A242G)
Procedure: as §1, §2, §3

[8] = molecular target: USPSa-Q280A (Staphylococcus aureus, UniProt A0A7U7EVR3, Q280A); experiment: as above; conditions: Q280A mutant, MST, read-out: Dissociation Constant (KD) ± Standard Deviation
Procedure: as §1, §2, §3

[9] = molecular target: T6, USPSa-S244D (Staphylococcus aureus, UniProt A0A7U7EVR3, S244D); experiment: as above; conditions: S244D mutant
T6 sequence (A0A7U7EVR3 213-364 S244D): T2 sequence (A0A7U7EVR3 213-364 A242G)
Procedure: as §1, §2, §3

[10] = molecular target: T7, USPSa-S246A (Staphylococcus aureus, UniProt A0A7U7EVR3, S246A); experiment: as above; conditions: S246A mutant
T7 sequence (A0A7U7EVR3 213-364 S246A): T2 sequence (A0A7U7EVR3 213-364 A242G)
Procedure: as §1, §2, §3

[11] = molecular target: T8, USPSa-Y248A (Staphylococcus aureus, UniProt A0A7U7EVR3, Y248A); experiment: as above; conditions: Y248A mutant
T8 sequence (A0A7U7EVR3 213-364 Y248A): T2 sequence (A0A7U7EVR3 213-364 A242G)
Procedure: as §1, §2, §3

[12] = molecular target: T9, USPSa-Y281F (Staphylococcus aureus, UniProt A0A7U7EVR3, Y281F); experiment: as above; conditions: Y281F mutant
T9 sequence (A0A7U7EVR3 213-364 Y281F): T2 sequence (A0A7U7EVR3 213-364 A242G)
Procedure: as §1, §2, §3

[13] = molecular target: T10, USPSa-K277A (Staphylococcus aureus, UniProt A0A7U7EVR3, K277A); experiment: MicroScale Thermophoresis (thermophoretic mobility change) nucleotide binding; conditions: K277A mutant
T10 sequence (A0A7U7EVR3 213-364 K277A): T2 sequence (A0A7U7EVR3 213-364 A242G)
Procedure: as §1, §2, §3

[14] = molecular target: USPSa-R279A (Staphylococcus aureus, UniProt A0A7U7EVR3, R279A); experiment: as above; conditions: R279A mutant; MST, change in thermophoretic mobility; read-out: Dissociation Constant (KD) ± Standard Deviation
Procedure: as §1, §2, §3

[15] = molecular target: T1, USPSa-WT; experiment: as above; conditions: MST, change in thermophoretic mobility, read-out: Dissociation Constant (KD) ± Standard Deviation
Procedure: as §1, §2, §3

[16] = changes in initial fluorescence
[17] = MST, initial fluorescence, read-out: Dissociation Constant (KD) ± Standard Deviation
[18] = Ka relative to WT USPSa set to 100%

Compound: Nc1ncnc2c1ncn2[C@@H]1O[C@H](COP(=O)(O)O)[C@@H](O)[C@H]1O [AMP]
- Kd [1, 16]: 2.65 ± 1.16 mM
- binding affinity, fold lower than that of c-di-AMP [1]: > 5000 fold
- binding in MST analysis (in words) [2]: did not bind
- Dissociation Constant (KD) ± Standard Deviation ([2]; MST, initial fluorescence): No Binding Observed
- improvement of binding affinity versus WT USPSa [3]: ~25 fold
- Kd [3, 17]: 140 ± 10 µM
- Kd ([4]; H331A mutant, MST, initial fluorescence, read-out: Dissociation Constant (KD) ± Standard Deviation): 4.13 ± 0.11 mM
- loss of relative binding affinity ([4]; His331 to Ala mutant, relative to WT USPSa): ~60%
- Kd [5]: 1.45 ± 0.64 mM
- relative affinity [6, 18]: 40%
- Kd [6, 17]: 4.14 ± 0.9 mM
- Kd [7]: 5.17 ± 3.42 mM
- Kd [8]: 1.82 ± 0.25 mM
- relative binding affinity [9, 18]: ~50%
- Kd [9, 17]: 4.06 ± 1.94 mM
- relative binding affinity [10, 18]: ~40%
- Kd [10, 17]: 7.25 ± 0.21 mM
- relative affinity [11, 18]: ~60%
- Kd [11, 17]: 5.4 ± 3.81 mM
- binding relative to WT USPSa [12, 18]: ~30%
- Kd [12, 17]: 5.15 ± 0.35 mM
- relative binding affinity [13, 18]: ~45%
- Kd ([13]; MST, change in thermophoretic mobility, read-out: Dissociation Constant (KD) ± Standard Deviation): 50.7 ± 4.03 mM
- Kd [14]: 14.4 ± 0.95 mM
- Kd [15]: 20.7 ± 4.4 mM

Compound: Nc1nc2c(ncn2[C@@H]2O[C@@H]3COP(=O)(O)O[C@H]4[C@@H](O)[C@H](n5cnc6c(=O)[nH]c(N)nc65)O[C@@H]4COP(=O)(O)O[C@H]3[C@H]2O)c(=O)[nH]1 [c-di-GMP]
- Dissociation Constant (KD) ± Standard Deviation ([1]; changes in initial fluorescence, columns without unit): No Binding Observed

Compound: Nc1ncnc2c1ncn2[C@@H]1O[C@@H]2COP(=O)(O)O[C@H]2[C@H]1O [c-AMP, cyclic AMP]
- Kd [1, 16]: 10 ± 0.71 mM
